Assay [1] deals with ERK phosphorylation in KYSE-520 cells. The experiment in a line: Phospho-ERK cellular assay (Advanced phospho-ERK1/2 (Thr202/Tyr204) TR-FRET kit). Format: cell-based. To be noted: Homo sapiens, KYSE-520, 2 h, KYSE-520 cells, 2 h at 37° C., TR-FRET; read-out: pERK IC50. The method, then:
Phospho-ERK Cellular Assay
ERK phosphorylation was detected using the “Advanced phospho-ERK1/2 (Thr202/Tyr204)” TR-FRET kit (Cisbio, Cat #64AERPEG/H), following the manufacturer reagents and instructions. […] After an overnight incubation, cells were treated with DMSO serial diluted compounds and incubated for 2 h at 37° C. After incubation, 2 μL/well of 4× Lysis Buffer (Cisbio 64KL1FDF), were added and incubated with cells for 30 min on gentle shaking. Finally, lysates were added with 2 μL/well of Eu cryptate (donor) and D2 (acceptor) conjugated antibodies (as provided by the Cisbio kit #64AERPEG/H) diluted 1:100 in Detection Buffer (as provided by the Cisbio kit #64AERPEG/H). Plates were then sealed and incubated at room temperature in the dark. After an overnight incubation, the TR-FRET signal was detected on a suitable reader (Envision, PerkinElmer). The lower the TR-FRET signal the higher the higher the SHP2 inhibition in cells. […] The percentage activity is fitted against the compound dilutions with a four-parameter logistic regression. The inflection point (i.e. the concentration at which half-maximal inhibition is achieved) is the IC50.
For orientation: Time-resolved FRET reads energy transfer from a long-lived donor to a nearby acceptor.

In assay [2] the target is T1, SHP-2 enzyme (Met1-Leu525) (Homo sapiens, UniProt Q06124).
T1 construct: synthetized by Origene, Met1-Leu525, cat #TP750155; purchased Origene TP750155
T1 sequence (Q06124 1-525): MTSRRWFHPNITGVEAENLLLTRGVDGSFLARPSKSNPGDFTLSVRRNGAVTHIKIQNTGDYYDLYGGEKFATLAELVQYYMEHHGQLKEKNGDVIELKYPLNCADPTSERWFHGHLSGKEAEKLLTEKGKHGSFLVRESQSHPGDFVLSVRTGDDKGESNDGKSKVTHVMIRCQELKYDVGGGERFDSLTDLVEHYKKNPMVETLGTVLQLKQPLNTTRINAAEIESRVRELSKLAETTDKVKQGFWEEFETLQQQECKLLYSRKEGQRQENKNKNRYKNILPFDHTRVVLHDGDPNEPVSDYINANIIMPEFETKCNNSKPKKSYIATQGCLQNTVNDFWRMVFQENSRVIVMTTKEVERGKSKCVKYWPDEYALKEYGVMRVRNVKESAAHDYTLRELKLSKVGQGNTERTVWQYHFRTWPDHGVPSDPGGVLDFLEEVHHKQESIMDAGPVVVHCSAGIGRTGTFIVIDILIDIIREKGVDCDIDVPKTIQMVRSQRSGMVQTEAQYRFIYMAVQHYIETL
Description: SHP2 inhibition enzymatic assay (DiFMUP substrate, IRS1 peptide activation). Format: biochemical. The note with it: SHP2 wt; activated by 500 nM IRS1 peptide; 75 μM DiFMUP substrate. The method, boiled down: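 SHP-2 (Met1-Leu525, 0.5 nM final) preincubated 30 min with compounds and IRS1 activating peptide in HEPES pH 7.2 buffer with NaCl, KCl, EDTA, tween-20, 5 mM DTT. DiFMUP then added for 30 min at room temperature and fluorescence read. IC50 from four-parameter logistic fit of % inhibition.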

Where only a bound is given, the exact number is not on record here.

One may read the IC50 as the concentration at which inhibition is half-maximal. As for `COC1CN(c2nccc(Sc3cnc4nc(N5CCC6(CC5)Cc5ccccc5[C@H]6N)[nH]c4n3)c2Cl)C1` [Example 181, (S)-1′-(5-((3-chloro-2-(3-methoxyazetidin-1-yl)pyridin-4-yl)thio)-1H-imidazo[4,5-b]pyrazin-2-yl)-1,3-dihydrospiro[indene-2,4′-piperidin]-1-amine], the half-inhibitory concentration (IC50) in assay [1] is greater than 5000 nM; in assay [2] it was less than 500 nM.

For the molecule `CNc1nccc(Sc2cnc3[nH]c(N4CCC5(CC4)Cc4ccccc4[C@H]5N)nc3n2)c1Cl` [Example 130, (S)-1′-(6-((3-chloro-2-(methylamino)pyridin-4-yl)thio)-1H-imidazo[4,5-b]pyrazin-2-yl)-1,3-dihydrospiro[indene-2,4′-piperidin]-1-amine], the IC50 is less than 1000 nM in assay [1] and less than 500 nM in assay [2].

Turning to `N[C@@H]1c2ccccc2CC12CCN(c1nc3nc(Sc4cc(Cl)nn5ccnc45)cnc3[nH]1)CC2` [Example 251, (S)-1′-(5-((6-chloroimidazo[1,2-b]pyridazin-8-yl)thio)-1H-imidazo[4,5-b]pyrazin-2-yl)-1,3-dihydrospiro[indene-2,4′-piperidin]-1-amine], the results for the IC50 in assay [1] and in assay [2] were 1000 to 5000 nM and less than 500 nM, respectively.

On to `CC1(N)CCN(c2nc3nc(Sc4cccc5cccnc45)cnc3[nH]2)CC1` [Example 88, 4-methyl-1-(5-(quinolin-8-ylthio)-1H-imidazo[4,5-b]pyrazin-2-yl)piperidin-4-amine], for which the IC50 in assay [1] was greater than 5000 nM; in assay [2], less than 500 nM.

Consider `Nc1nccc(Sc2cnc3[nH]c(N4CCC5(CC4)Cc4ccc(C6CC6)cc4[C@H]5N)nc3n2)c1Cl` [Example 257, (S)-1′-(5-((2-amino-3-chloropyridin-4-yl)thio)-1H-imidazo[4,5-b]pyrazin-2-yl)-6-cyclopropyl-1,3-dihydrospiro[indene-2,4′-piperidin]-1-amine], for which the concentration for half-maximal inhibition (IC50) was less than 1000 nM in assay [1] and less than 500 nM in assay [2].

As to `N[C@@H]1c2ccccc2CC12CCN(c1nc3ncc(Sc4ccnc5ccccc45)nc3[nH]1)CC2` [Example 176, (S)-1′-(6-(quinolin-4-ylthio)-1H-imidazo[4,5-b]pyrazin-2-yl)-1,3-dihydrospiro[indene-2,4′-piperidin]-1-amine], the IC50 was less than 1000 nM in assay [1] and less than 500 nM in assay [2].

Turning to `CC(=O)N1CC(F)(F)c2c(Sc3cnc4[nH]c(N5CCC6(CC5)Cc5ccccc5[C@H]6N)nc4n3)cccc21` [Example 135, (S)-1-(4-((2-(1-amino-1,3-dihydrospiro[indene-2,4′-piperidin]-1′-yl)-1H-imidazo[4,5-b]pyrazin-5-yl)thio)-3,3-difluoroindolin-1-yl)ethan-1-one], the IC50 was less than 1000 nM in assay [1] and less than 500 nM in assay [2].

Turning to `N[C@@H]1c2cccnc2CC12CCN(c1nc3ncc(Sc4ccc5c(c4Cl)NC(=O)CO5)nc3[nH]1)CC2` [Example 169, (S)-6-((2-(5-amino-5,7-dihydrospiro[cyclopenta[b]pyridine-6,4′-piperidin]-1′-yl)-1H-imidazo[4,5-b]pyrazin-6-yl)thio)-5-chloro-2H-benzo[b][1,4]oxazin-3(4H)-one], the IC50 in assay [1] is less than 1000 nM; in assay [2], less than 500 nM.

Regarding `N[C@@H]1c2ccccc2CC12CCN(c1nc3ncc(Sc4cccc5[nH]c(=O)oc45)nc3[nH]1)CC2` [Example 178, (S)-7-((2-(1-amino-1,3-dihydrospiro[indene-2,4′-piperidin]-1′-yl)-1H-imidazo[4,5-b]pyrazin-6-yl)thio)benzo[d]oxazol-2(3H)-one], the IC50 in assay [1] was 1000 to 5000 nM; in assay [2], less than 500 nM.

With `CC1(N)CCN(c2nc3nc(Sc4cccc5nccnc45)cnc3[nH]2)CC1` [Example 71, 4-methyl-1-(5-(quinoxalin-5-ylthio)-1H-imidazo[4,5-b]pyrazin-2-yl)piperidin-4-amine], the IC50 in assay [1] was 1000 to 5000 nM; in assay [2] it was less than 500 nM.

As to `CC1(N)CCN(c2nc3nc(Sc4ccccc4C(F)(F)F)cnc3[nH]2)CC1` [Example 18, 4-methyl-1-(5-((2-(trifluoromethyl)phenyl)thio)-1H-imidazo[4,5-b]pyrazin-2-yl)piperidin-4-amine], the IC50 in assay [1] is 1000 to 5000 nM; in assay [2], less than 500 nM.

(Values after patent US20220289753A1, “SHP2 INHIBITORS” (IRBM S.P.A., priority 2019, published 2022).)
